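1) Cells in 96-well plates. 2) Compound, 48 h, 5 concentrations. 3) Linear interpolation between surrounding doses. 4) Unreached endpoint = highest concentration. The concentration for 50% growth inhibition is given as GI50. The concentration for full growth arrest is given as TGI.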
Key:
Assay in all cases: NCI anticancer screen, dose series, 48 h
[1] = test system: A549 NSCLC
[2] = test system: CAKI-1 renal
[3] = test system: COLO 205 colon
[4] = test system: HOP-62 NSCLC
[5] = test system: HT29 colon
[6] = test system: MOLT-4 leukemia
[7] = test system: OVCAR-3 ovarian
[8] = test system: RXF 393 renal
[9] = test system: SK-MEL-28 melanoma
[10] = test system: UO-31 renal

Row | Structure (SMILES) | GI50 [1] [µM] | TGI [1] [µM] | GI50 [2] [µM] | TGI [2] [µM] | GI50 [3] [µM] | TGI [3] [µM] | GI50 [4] [µM] | TGI [4] [µM] | GI50 [5] [µM] | TGI [5] [µM] | GI50 [6] [µM] | TGI [6] [µM] | GI50 [7] [µM] | TGI [7] [µM] | GI50 [8] [µM] | TGI [8] [µM] | GI50 [9] [µM] | TGI [9] [µM] | GI50 [10] [µM] | TGI [10] [µM]
1 | C=[CH][Sn]([CH]=C)([O]c1cccc2cccnc12)[O]c1cccc2cccnc12 | 3.37 | 13.9 | 6.73 | 22.8 | 1.79 | 3.19 | 10.7 | 32.8 | 3.26 | 7.14 | 1.42 | 11.1 | 2.53 | 10 | 0.28 | 1.21 | 4.03 | 10.5 | 3.25 | 9.31
2 | O=C(Nc1ccccc1C(=O)N/N=C(\c1ccccc1)c1ccccn1)c1ccc(F)cc1 | 0.451 | > 100 | 0.42 | > 100 | 0.215 | > 100 | 0.214 | > 38.5 | 0.165 | > 100 | 0.284 | > 100 | 0.211 | > 100 | 0.576 | 9.17 | 0.536 | > 100 | 0.0828 | 7.25
3 | CCSC(SCC)=C1C(=O)N(c2ccccc2)N=C1C |  | 35.1 |  | 15.8 |  | 7.08 |  | 53.7 |  | 39.4 |  | 23.4 |  | 20.2 |  | 5.89 |  | 26.5 |  | 29
4 | Oc1ccc(Cl)cc1Cc1cc(Cl)ccc1O | 2.95 | 11.1 | 2.8 | 9.38 | 13.7 | 26.8 | 2.39 | 7.56 | 3.55 | 10.6 | 2.86 | 8.83 | 2.63 | 8.35 | 2.38 | 8.04 | 3.52 | 12.6 | 2.06 | 6.48
5 | CN1CCN(c2nc(-c3ccncc3)nc3sc4c(c23)CCCCCC4)CC1 | 11.4 | 25.3 | 3.44 | 19.4 | 4.94 | 17.2 | 6.5 | 19.4 | 4.75 | 17.3 | 3.8 | 16.2 | 13.5 | 27 | 4.08 | 19 | 12.5 | 25.1 | 1.57 | 8.85
6 | C[N+](C)(C)CC1CCCC(C[N+](C)(C)C)C1O (stereo not given) |  | > 100 |  | > 100 |  | > 100 |  | > 100 |  | > 100 |  | > 100 |  | > 100 |  | > 100 |  | > 100 |  | > 100
7 | COc1cccc(NC(=O)C(=O)C(C(C)=O)c2nc3ccc(Cl)cc3[nH]c2=O)c1 (stereo not given) |  | > 100 |  | > 100 |  | > 100 |  | > 100 |  | > 100 |  | > 100 |  | > 100 |  | > 100 |  | > 100 |  | > 100
8 | O=c1[nH]c2ccccc2n1-c1n[nH]c2ccccc12 | 30.8 | > 100 | 25.3 | > 100 | 28.7 | > 100 | 33.2 | > 100 | 37.6 | > 100 | 17.3 | 84.9 | 27.5 | > 100 | 43.6 | > 100 | 38.8 | > 100 | 12.5 | > 100
9 | CNC(=O)CN(CC(N)=O)C(N)=O |  | > 100 |  | > 100 |  | > 100 |  | > 100 |  | > 100 |  | > 100 |  | > 100 |  | > 100 |  | > 100 |  | > 100
10 | CSc1ccc(C(=O)C(=O)c2ccc(SC)s2)s1 |  | > 10 |  | > 10 |  | > 10 |  | > 10 |  | > 10 |  | 7.78 |  | > 10 |  | > 10 |  | > 10 |  | > 10
11 | CC(C)C(=O)Oc1cc2c(=O)oc3c(OC(=O)C(C)C)c(OC(=O)C(C)C)cc4c(=O)oc(c1OC(=O)C(C)C)c2c34 |  | > 100 |  | > 100 |  | > 100 |  | > 100 |  | > 100 |  | > 100 |  | > 100 |  | > 100 |  | > 100 |  | > 100
12 | CC1(C)OC2C(COS(N)(=O)=O)SC(n3cnc4cncnc43)C2O1 (stereo not given) | > 100 | > 100 | > 100 | > 100 | > 100 | > 100 | > 100 | > 100 | > 100 | > 100 | > 100 | > 100 | > 100 | > 100 | > 100 | > 100 | > 100 | > 100 | > 100 | > 100
13 | COc1ccccc1NC(=O)C(CC(C(=O)Nc1ccccc1OC)/C(C)=N/Nc1ccc([N+](=O)[O-])cc1[N+](=O)[O-])/C(C)=N/Nc1ccc([N+](=O)[O-])cc1[N+](=O)[O-] (stereo not given) |  | > 100 |  | > 100 |  | > 100 |  | > 100 |  | > 100 |  | > 100 |  | > 100 |  | > 100 |  | > 100 |  | > 100
14 | CC1CCC2N(C1)CC1C3(O)CC45OC6(O)C(O)CCC4(C)C6CCC5C3(O)CC(O)C1(O)C2(C)O (stereo not given) |  | > 100 |  | > 100 |  | > 100 |  | > 100 |  | > 100 |  | > 100 |  | > 100 |  | > 100 |  | > 100 |  | > 100

— PubChem BioAssay (NCI)
